Data from patent publication US8455514B2 (Aerie Pharmaceuticals, Inc., priority 2008, dated 2013).
Structures can show the parent of a compound that is named as a salt.

Tests used:
eyes [1] = experiment: Topical pharmaceutical composition administered to the eyes as drops (present-tense composition examples); format: in vivo, patient; settings: composition of Example 90 (0.50 wt %)
Procedure: (§1) Topical pharmaceutical compositions for lowering intraocular pressure are prepared by conventional methods and formulated as follows: […]
A compound according to this invention is used as the 6- or 7-aminoisoquinoline derivative. When the composition is topically administered to the eyes once or more daily as 40 microliter drops, the above composition decreases intraocular pressure in a patient suffering from glaucoma.

eyes [2] = experiment: as above; format: in vivo, patient; settings: composition of Example 90 (0.50 wt %); for neuroprotective effect: topical drop 4 times per day; for effect on hyperemia, redness and ocular irritation: drop as needed
[3] = system: eyes of a Dutch-belted rabbit; experiment: Intraocular pressure after a topical drop to the eyes of Dutch-belted rabbits; format: in vivo; settings: composition of Example 105 (0.30 wt %), 40 microliter drop topically once daily; for decrease of intraocular pressure: in some tests
Procedure: as §1
A pharmaceutical composition was prepared according to Example 105, where the 6-aminoisoquinoline derivative was (R)-2-(dimethylamino)-N-(1-hydroxyisoquinolin-6-yl)-2-(thiophen-3-yl)acetamide hydrochloride (E79). […] In some tests, the intraocular pressure was decreased by greater than 5 mm of mercury.

[4] = topical drop twice a day or as needed

N[C@@H](C(=O)Nc1ccc2cnccc2c1)c1ccccc1 [Example E2, (R)-2-amino-N-(isoquinolin-6-yl)-2-phenylacetamide dihydrochloride]
effect on intraocular pressure (eyes [1]; topical drop 4 times per day): substantially decreases intraocular pressure
neuroprotective effect (eyes [2]): serves as a neuroprotective agent

CN(C)[C@@H](C(=O)Nc1ccc2cnccc2c1)c1ccccc1 [Example E3, (R)-2-(dimethylamino)-N-(isoquinolin-6-yl)-2-phenylacetamide dihydrochloride]
effect on intraocular pressure (eyes [1]; topical drop twice per day): substantially decreases intraocular pressure
effect on hyperemia, redness and ocular irritation (eyes [2]): substantially decreases hyperemia, redness and ocular irritation

Cl.Cl.N[C@@H](C(=O)Nc1ccc2cnccc2c1)C1CCCCC1 [Example E9, (R)—N-(isoquinolin-6-ylamino)-2-amino-2-cyclohexyl acetamide dihydrochloride]
effect on allergic symptoms (eyes [2]; topical drop as needed): substantially decreases allergic symptoms

CCCN[C@H](C(=O)Nc1ccc2cnccc2c1)C1CCCCC1 [Example E25, (S)-2-cyclohexyl-N-(isoquinolin-6-yl)-2-(propylamino)acetamide]
effect on intraocular pressure (eyes [1]; [4]): substantially decreases intraocular pressure

O=C(Nc1ccc2cnccc2c1)[C@@H](c1ccccc1)N1CCNCC1 [Example E40, (R)—N-(isoquinolin-6-yl)-2-phenyl-2-(piperazin-1-yl)acetamide]
effect on hyperemia, redness and ocular irritation (eyes [2]): substantially decreases hyperemia, redness and ocular irritation

O=C(Nc1ccc2cnccc2c1)[C@@H](c1ccccc1)N1CCCNC1 [Example E41, (R)—N-(isoquinolin-6-yl)-2-phenyl-2-(tetrahydropyrimidin-1(2H)-yl)acetamide]
effect on intraocular pressure (eyes [1]; [4]): substantially decreases intraocular pressure

O=S(=O)(Nc1ccc2cnccc2c1)C(NC1CCCCC1)c1ccccc1 (stereo not shown) [Example E50]
effect on allergic symptoms (eyes [2]; topical drop twice per day): substantially decreases allergic symptoms
effect on dry eye syndrome (eyes [2]; topical drop twice per day): relieves dry eye syndrome

CN(C)[C@@H](C(=O)Nc1ccc2c(O)nccc2c1)c1ccsc1 [Example E79, (R)-2-(dimethylamino)-N-(1-hydroxyisoquinolin-6-yl)-2-(thiophen-3-yl)acetamide hydrochloride]
effect on intraocular pressure [3]: substantially decreased intraocular pressure
decrease of intraocular pressure [3]: greater than 5 mm of mercury

CN(C)[C@@H](C(=O)Nc1ccc2cnccc2c1)c1ccsc1.Cl [Example E80, (R)-2-(dimethylamino)-N-(isoquinolin-6-yl)-2-(thiophen-3-yl)acetamide hydrochloride]
effect on intraocular pressure [3]: substantially decreased intraocular pressure
decrease of intraocular pressure [3]: greater than 5 mm of mercury

CC(C)C[C@@H](C(=O)Nc1ccc2ccncc2c1)N(C)C(=O)OC(C)(C)C [Example E87, (S)-tert-butyl 1-(isoquinolin-7-ylamino)-4-methyl-1-oxopentan-2-yl(methyl)carbamate]
effect on intraocular pressure (eyes [1]; topical drop 4 times per day): substantially decreases intraocular pressure

CN[C@@H](CC(C)C)C(=O)Nc1ccc2ccncc2c1 [Example E88, (S)—N-(isoquinolin-7-yl)-4-methyl-2-(methylamino)pentanamide dihydrochloride]
effect on intraocular pressure (eyes [1]; topical drop 4 times per day): substantially decreases intraocular pressure

(R)—N-(isoquinolin-6-yl amino)-2-(methylamino)-2-o-fluorophenyl acetamide dihydrochloride [Example E17]
effect on intraocular pressure (eyes [1]; topical drop 4 times per day): substantially decreases intraocular pressure
neuroprotective effect (eyes [2]): serves as a neuroprotective agent

(R)—N-(isoquinolin-6-yl-amino)-2-(ethylamino)-2-p-methylphenyl acetamide dihydrochloride [Example E18]
effect on intraocular pressure (eyes [1]; topical drop twice per day): substantially decreases intraocular pressure
